Measured values: US10189887B2, “Polypeptides and uses thereof for reducing CD95-mediated cell motility” (INSERM (INSTITUT NATIONAL DE LA SANTÉ ET DE LA RECHERCHE …, priority 2014, dated 2019)
Ends that are not written are not given here.

How the values were obtained:
CD95/PLCγ1 = biological target: T1, CD95/PLCγ1 (Homo sapiens, UniProt P19174); test: PLCγ1 recruitment to CD95 (immunoprecipitation and immunoblotting); format: cell-based; conditions: HEK cells co-transfected with PLCγ1 and construct
T1 construct: endogenous in cells; host or cells: CEM (human leukemic T-cell line)
T1 sequence (P19174 2-1290 limits assumed): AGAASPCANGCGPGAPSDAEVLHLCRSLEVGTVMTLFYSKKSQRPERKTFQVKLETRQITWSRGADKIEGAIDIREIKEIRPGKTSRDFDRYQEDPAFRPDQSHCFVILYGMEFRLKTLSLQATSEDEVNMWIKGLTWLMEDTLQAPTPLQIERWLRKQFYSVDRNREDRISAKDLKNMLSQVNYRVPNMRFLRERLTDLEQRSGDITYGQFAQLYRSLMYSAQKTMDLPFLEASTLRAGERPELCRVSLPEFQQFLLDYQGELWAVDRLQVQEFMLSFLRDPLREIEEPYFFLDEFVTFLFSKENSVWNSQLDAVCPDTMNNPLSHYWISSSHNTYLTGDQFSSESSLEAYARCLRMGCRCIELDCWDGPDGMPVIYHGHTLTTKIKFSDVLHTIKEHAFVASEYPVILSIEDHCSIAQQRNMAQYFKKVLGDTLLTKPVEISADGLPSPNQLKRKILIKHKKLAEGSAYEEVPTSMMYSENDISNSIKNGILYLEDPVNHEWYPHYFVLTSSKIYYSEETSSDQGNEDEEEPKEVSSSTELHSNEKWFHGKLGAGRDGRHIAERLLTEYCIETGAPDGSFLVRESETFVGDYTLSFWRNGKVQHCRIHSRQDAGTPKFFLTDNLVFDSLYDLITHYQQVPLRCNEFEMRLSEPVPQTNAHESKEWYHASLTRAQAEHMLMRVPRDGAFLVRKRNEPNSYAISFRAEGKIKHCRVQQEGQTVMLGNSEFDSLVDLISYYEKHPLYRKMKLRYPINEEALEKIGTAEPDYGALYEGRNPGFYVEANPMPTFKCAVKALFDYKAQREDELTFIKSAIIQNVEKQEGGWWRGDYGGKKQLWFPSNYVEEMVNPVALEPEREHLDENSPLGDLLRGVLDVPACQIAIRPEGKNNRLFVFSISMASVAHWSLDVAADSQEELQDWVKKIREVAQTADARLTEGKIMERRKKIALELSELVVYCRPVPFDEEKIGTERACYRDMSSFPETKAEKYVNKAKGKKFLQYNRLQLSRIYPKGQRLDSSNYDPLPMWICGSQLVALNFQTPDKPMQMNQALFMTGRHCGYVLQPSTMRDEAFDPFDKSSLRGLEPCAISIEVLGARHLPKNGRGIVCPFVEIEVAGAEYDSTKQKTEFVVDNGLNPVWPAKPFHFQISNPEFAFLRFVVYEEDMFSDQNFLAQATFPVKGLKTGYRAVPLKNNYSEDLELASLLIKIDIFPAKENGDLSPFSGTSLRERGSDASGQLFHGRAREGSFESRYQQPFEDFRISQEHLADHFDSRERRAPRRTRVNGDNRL
Experimental: T-cells (5×10^7 cells per condition) were stimulated with Ig-CD95L or cl-CD95L (100 ng/mL) for indicated times at 37° C. Cells were lysed, incubated with APO1.3 (1 ug/mL) for 15 min at 4° C. and CD95 was immunoprecipitated using A/G protein-coupled magnetic beads (Ademtech, Pessac, France) for 1 h. After extensive washing, the immune complex was resolved by SDS-PAGE and immunoblotting was performed with indicated antibodies.
Cells were lyzed for 30 minutes at 4° C. in lysis buffer (25 mM HEPES pH 7.4, 1% v/v Triton X-100, 150 mM NaCl, 2 mM EGTA supplemented with a mix of protease inhibitors (Sigma-Aldrich)). Protein concentration was determined by the bicinchoninic acid method (PIERCE, Rockford, Ill., USA) according to the manufacturer's protocol. Proteins were separated on a 12% SDS-PAGE and transferred to a nitrocellulose membrane (GE Healthcare, Buckinghamshire, England). The membrane was blocked 15 minutes with TBST (50 mM Tris, 160 mM NaCl, 0.05% v/v Tween 20, pH 7.8) containing 5% w/v dried skimmed milk (TBSTM). Primary antibody was incubated overnight at 4° C. in TBSTM. The membrane was intensively washed (TBST) and then the peroxydase-labeled anti-rabbit or anti-mouse (SouthernBiotech, Birmingham, Ala., US) was added for 45 minutes. The proteins were visualized with the enhanced chemiluminescence substrate kit (ECL, GE Healthcare).

[1] = system: CD95-mediated Ca^2+ response; test: Calcium response to cl-CD95L in Jurkat cells (Fura2/FuraPE3 video imaging); format: cell-based; conditions: Jurkat pre-incubated 1 hr, 10 μM peptide; 100 ng/ml cl-CD95L
Experimental: (§1) Cells were loaded with Fura2-AM (1 μM) at resting temperature for 30 min in Hank's Balanced Salt Solution (HBSS). After washing with HBSS, the cells were incubated for 15 min in the absence of Fura2-AM to complete de-esterification of the dye. Cells were placed in a thermostated chamber (37° C.) of an inverted epifluorescence microscope (Olympus IX70) equipped with a ×40, UApo/340-1.15 W water-immersion objective (Olympus), and fluorescence micrograph images were captured at 510 nm and at 12-bit resolution by a fast-scan camera (CoolSNAP fx Monochrome, Photometrics). To minimize UV light exposure, 4×4 binning function was used. Fura2-AM was alternately excited at 340 and 380 nm, and ratios of the resulting images (excitations at 340 and 380 nm and emission filter at 520 nm) were produced at constant intervals (5 s or 10 s according to the stimulus). […] Fluorescent images were pseudocolored using the IMD display mode in MetaFluor and assembled without further manipulation in Photoshop (Adobe). Raw data were acquired with MetaFluor and graphed in Origin (OriginLab). [Ca^2+]i was calculated using the following equation: [Ca^2+]i=Kd(R−Rmin)/(R−Rmax)×Sf2/Sf1, where Kd is the Fura2-AM dissociation constant at the two excitation wavelengths (F340/F380); Rmin is the fluorescence ratio in the presence of minimal calcium, obtained by chelating Ca^2+ with 10 mM EGTA; Rmax is the fluorescence ratio in the presence of excess calcium, obtained by treating cells with 1 μM ionomycin; Sf2 is the fluorescence of the Ca^2+-free form; and Sf1 is the fluorescence of the Ca^2+-bound form of Fura2-AM at excitation wavelengths of 380 and 340 nm, respectively. In some experiments cells were placed in a Ca^2+-free medium consisting of the HBSS described above in which CaCl2 was omitted and 100 μM EGTA was added in order to chelate residual Ca^2+ ions. This medium was added to the cells just before recording to avoid leak of the intracellular calcium stores.
T cells were loaded with Fura-PE3-AM (1 μM) at room temperature for 30 min in Hank's Balanced Salt Solution (HBSS). After washing, the cells were incubated for 15 min in the absence of Fura-PE3-AM to complete de-esterification of the dye. Cells were placed in the temperature controlled chamber (37° C.) of an inverted epifluorescence microscope (Olympus IX70) equipped with an ×40 UApo/340-1.15 W water-immersion objective (Olympus), and fluorescence micrograph images were captured at 510 nm and 12-bit resolution by a fast-scan camera (CoolSNAP fx Monochrome, Photometrics). To minimize UV light exposure, a 4×4 binning function was used. Fura-PE3 was alternately excited at 340 and 380 nm, and the ratios of the resulting images (emission filter at 520 nm) were produced at constant intervals (10 seconds). The Fura-PE3 ratio (Fratio 340/380) images were analyzed offline with Universal Imaging software, including Metafluor and Metamorph. Fratio reflects the intracellular Ca^2+ concentration changes. Each experiment was repeated 3 times, and the average of more than 20 single-cell traces was analyzed.

[2] = system: CD95-mediated Ca^2+ response; test: Calcium response to cl-CD95L in activated PBL; format: cell-based, human; conditions: activated PBL pre-incubated 1 hr, 10 μM peptide; 100 ng/ml cl-CD95L
Experimental: as §1
All cells were purchased from ATCC (Molsheim Cedex, France). T leukemic cell lines CEM, H9 and Jurkat were cultured in RPMI supplemented with 8% heat-inactivated FCS (v/v) and 2 mM L-glutamine at 37° C. in a 5% CO2 incubator. CEM-IRC cell expressing a low amount of plasma membrane CD95 was described in (Beneteau et al., 2007; Beneteau et al., 2008). […]
T cells were loaded with Fura-PE3-AM (1 μM) at room temperature for 30 min in Hank's Balanced Salt Solution (HBSS). […] Cells were placed in the temperature controlled chamber (37° C.) of an inverted epifluorescence microscope (Olympus IX70) equipped with an ×40 UApo/340-1.15 W water-immersion objective (Olympus), and fluorescence micrograph images were captured at 510 nm and 12-bit resolution by a fast-scan camera (CoolSNAP fx Monochrome, Photometrics). […]

[3] = system: CD95-mediated Ca^2+ response; test: Calcium response to cl-CD95L in MEF; format: cell-based; conditions: MEFs pre-incubated 1 hr, 10 μM peptide; 100 ng/ml cl-CD95L
Experimental: Cells were loaded with Fura2-AM (1 μM) at resting temperature for 30 min in Hank's Balanced Salt Solution (HBSS). After washing with HBSS, the cells were incubated for 15 min in the absence of Fura2-AM to complete de-esterification of the dye. Cells were placed in a thermostated chamber (37° C.) of an inverted epifluorescence microscope (Olympus IX70) equipped with a ×40, UApo/340-1.15 W water-immersion objective (Olympus), and fluorescence micrograph images were captured at 510 nm and at 12-bit resolution by a fast-scan camera (CoolSNAP fx Monochrome, Photometrics). To minimize UV light exposure, 4×4 binning function was used. Fura2-AM was alternately excited at 340 and 380 nm, and ratios of the resulting images (excitations at 340 and 380 nm and emission filter at 520 nm) were produced at constant intervals (5 s or 10 s according to the stimulus). […] Fluorescent images were pseudocolored using the IMD display mode in MetaFluor and assembled without further manipulation in Photoshop (Adobe). Raw data were acquired with MetaFluor and graphed in Origin (OriginLab). […]

Substance | interaction with PLCγ1 (co-immunoprecipitation) (CD95/PLCγ1) | PLCγ1 recruitment to CD95 (CD95/PLCγ1; CD95L 100 ng/mL) | calcium response to cl-CD95L [1] | calcium response to cl-CD95L [2] | initial phase of the calcium response to cl-CD95L [3]
CD95^(175-210)-mCherry: construct consisting of CD95 amino acids 175 to 210 (calcium-inducing domain) fused to mCherry, expressed in HEK cells (KRKEVQKTCRKHRKENQGSHESPTLNPETVAINLSD-mCherry) | interacted with PLCγ1 | inhibited its recruitment to CD95 | – | – | –
TAT peptide control: TAT control peptide, SEQ ID NO: 5 (RKKRRQRRRGGSIELDDPRPR; TAT-CONTROL) [reference compound] | – | – | did not significantly modify the calcium response | did not significantly modify the calcium response | did not modify the initial phase
